Results on 27 compounds are retold here after patent US4217357A, “Inhibition of thromboxane synthetase with 3-(imidazol-1-ylalkyl)indoles” (Pfizer Inc., priority 1978, dated 1980).

The target of test [1] is T1, thromboxane synthetase (Homo sapiens, UniProt P24557).
T1 construct: Indomethacin-pretreated human platelet microsomes; from tissue; host or cells: human platelet microsomes
T1 sequence (P24557 1-533): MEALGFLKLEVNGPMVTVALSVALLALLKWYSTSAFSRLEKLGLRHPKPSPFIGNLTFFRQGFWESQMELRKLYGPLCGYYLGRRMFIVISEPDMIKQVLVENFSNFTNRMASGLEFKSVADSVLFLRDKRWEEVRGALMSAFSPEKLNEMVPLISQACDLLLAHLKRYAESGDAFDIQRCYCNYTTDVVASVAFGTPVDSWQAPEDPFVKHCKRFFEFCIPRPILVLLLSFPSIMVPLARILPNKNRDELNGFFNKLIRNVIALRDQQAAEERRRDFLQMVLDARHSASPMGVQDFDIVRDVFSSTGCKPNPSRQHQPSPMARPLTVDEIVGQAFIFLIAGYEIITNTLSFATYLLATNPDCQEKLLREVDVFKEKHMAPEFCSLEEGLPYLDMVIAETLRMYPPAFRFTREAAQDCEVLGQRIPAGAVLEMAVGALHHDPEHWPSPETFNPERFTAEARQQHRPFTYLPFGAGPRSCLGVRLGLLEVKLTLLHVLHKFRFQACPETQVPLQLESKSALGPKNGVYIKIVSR
Kind of test: Thromboxane A2 (TxA2) synthetase in vitro enzyme assay. The format is biochemical. The following applies: for pIC50: indomethacin-pretreated human platelet microsomes, PGH2, 0° C., 2 min, 5 min pre-incubation, read-out: Concentration causing 50% inhibition of (1) thromboxane synthetase; for Ratio of (3) to (1): prostacyclin synthetase / thromboxane synthetase 50% inhibition concentrations. On the procedure:
Indomethacin-pretreated human platelet microsomes (Science, 1976, 193, 163) are incubated with PGH2 (produced as described in test No. 1) at 0° C. for a period of two minutes, and aliquots of the reaction mixture are then superfused over two rabbit aorta spirals which are separated by a delay coil (2 min.). The latter is required in order to allow for the selective decay of the more unstable thromboxane A2 (Proc. Nat. Acad. Sci., 1975, 72, 2994), thereby enabling separate measurement of the increased isometric tension due to the TxA2 formed and the PGH2 remaining to take place. The test compound is then pre-incubated with the enzyme for a period of five minutes, and its ability to inhibit the thromboxane synthetase enzyme is measured as its reduction of the TxA2 component of the isometric tension.

Test [2] deals with T2, prostacyclin synthetase (Sus scrofa, UniProt A0A5G2QT35).
T2 construct: Pig aorta microsomes; from tissue; host or cells: pig aorta microsomes
T2 sequence (A0A5G2QT35 1-497): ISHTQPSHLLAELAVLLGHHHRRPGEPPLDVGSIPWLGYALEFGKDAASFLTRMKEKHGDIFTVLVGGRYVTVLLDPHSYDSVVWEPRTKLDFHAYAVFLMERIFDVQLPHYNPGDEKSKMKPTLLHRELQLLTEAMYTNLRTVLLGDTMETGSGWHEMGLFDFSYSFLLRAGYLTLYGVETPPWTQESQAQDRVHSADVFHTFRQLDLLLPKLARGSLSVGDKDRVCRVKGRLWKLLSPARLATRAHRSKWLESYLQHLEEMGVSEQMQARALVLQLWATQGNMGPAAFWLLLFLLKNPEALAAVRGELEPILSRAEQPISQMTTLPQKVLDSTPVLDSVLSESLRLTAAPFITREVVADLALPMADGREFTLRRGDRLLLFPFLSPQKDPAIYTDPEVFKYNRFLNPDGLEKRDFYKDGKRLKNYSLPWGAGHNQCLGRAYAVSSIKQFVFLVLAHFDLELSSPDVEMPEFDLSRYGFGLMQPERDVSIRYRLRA
Kind of test: Prostacyclin (PGI2) synthetase in vitro enzyme assay. The following applies: pig aorta microsomes, PGH2, 22° C., 30 seconds; 5 min pre-incubation; read-out: Concentration causing 50% inhibition of (3) prostacyclin synthetase. It is filed as biochemical.

Each structure is given as a SMILES string. pIC50: −log10 of the molar value.

With `c1ccc2c(c1)c(Cn1ccnc1)cn2CC1CC1` [XXXVI, 1-cyclopropylmethyl-3-(imidazol-1-ylmethyl)indole], in test [1], the pIC50 was 7.96 and the “Ratio of (3) to (1)” value is given as 9,000. Further, the pIC50 in test [2] is 4.00.

`COc1ccc(C(=O)n2cc(Cn3ccnc3)c3ccccc32)cc1` [XLIII, 3-(imidazol-1-ylmethyl)-1-(p-methoxybenzoyl)indole]: the figures for the pIC50 in test [1] and in test [2] were 8.77 and less than 4.00, respectively. In addition, the “Ratio of (3) to (1)” value in test [1] is given as > 60,000.

`FC(F)(F)c1ccc2c(Cn3ccnc3)c[nH]c2c1` [XXIV, 3-(imidazol-1-ylmethyl)-6-trifluoromethylindole]: in test [1], the pIC50 is 6.70 and the “Ratio of (3) to (1)” value is 500. For the same compound, the pIC50 in test [2] was 4.00.

On to `Cc1ccc2[nH]cc(Cn3ccnc3)c2c1` [XI, 3-(imidazol-1-ylmethyl)-5-methylindole], for which the pIC50 in test [1] is 7.24; in test [2] it was 4.46. Moreover, the “Ratio of (3) to (1)” value in test [1] came to 600.

Take `CN(C)CCn1cc(Cn2ccnc2)c2ccccc21` [XXXVIII, 1-(β-dimethylaminoethyl)-3-(imidazol-1-ylmethyl)indole]: in test [1], the pIC50 is 7.59 and the “Ratio of (3) to (1)” value was > 3,800. Besides, the pIC50 in test [2] was less than 4.00.

For the compound `COCCn1cc(Cn2ccnc2)c2ccccc21` [XXXVII, 3-(imidazol-1-ylmethyl)-1-(β-methoxyethyl)indole], in test [1], the pIC50 was 7.35 and the “Ratio of (3) to (1)” value is recorded as > 2,200. For the same compound, the pIC50 in test [2] is less than 4.00.

Turning to `Cc1ccc(C(=O)n2cc(Cn3ccnc3)c3ccccc32)cc1` [XLII, 3-(imidazol-1-ylmethyl)-1-(p-methylbenzoyl)indole], in test [1], the pIC50 is 9.39 and the “Ratio of (3) to (1)” value was 49,000. Also, the pIC50 in test [2] was 4.70.

For the compound `Clc1ccc(-c2[nH]c3ccccc3c2Cn2ccnc2)cc1` [XXI], the pIC50 was 6.96 in test [1] and less than 4.00 in test [2]. Moreover, the “Ratio of (3) to (1)” value in test [1] is on record as greater than 900.

Take `c1ccc(Cc2[nH]c3ccccc3c2Cn2ccnc2)cc1` [XXII, 2-benzyl-3-(imidazol-1-ylmethyl)indole]: in test [1], the pIC50 was 9.00 and the “Ratio of (3) to (1)” value is listed as > 10^5. The pIC50 in test [2] is less than 4.00.

`COc1ccccc1-c1[nH]c2ccccc2c1Cn1ccnc1` [XVIII, 2-(o-anisyl)-3-(imidazol-1-ylmethyl)indole]: in test [1], the pIC50 is 9.42 and the “Ratio of (3) to (1)” value is on record as 3,700. Further, in test [2], the pIC50 is 5.85.

Take `CC(c1c[nH]c2ccccc12)n1ccnc1` (stereo not drawn) [Example VII, 3-[α-(imidazol-1-yl)ethyl]indole]: the pIC50 was 7.52 in test [1] and less than 4.00 in test [2]. Besides, the “Ratio of (3) to (1)” value in test [1] was 3,300.

As to `c1ccc2c(Cn3ccnc3)c(C34CC5CC(CC(C5)C3)C4)[nH]c2c1` [XIV], in test [1], the pIC50 is 8.60 and the “Ratio of (3) to (1)” value came to 400. Moreover, in test [2], the pIC50 was 6.00.

For `O=C(C1CC1)n1cc(Cn2ccnc2)c2ccccc21` [XLI, 1-cyclopropylcarbonyl-3-(imidazol-1-yl-methyl)indole], the pIC50 in test [1] was 8.37.

For the compound `CC(=O)n1cc(Cn2ccnc2)c2ccccc21` [Example XLVI, 1-acetyl-3-(imidazol-1-ylmethyl)indole], the pIC50 is 8.92 in test [1] and 4.17 in test [2]. Besides, the “Ratio of (3) to (1)” value in test [1] was 57,000.

For the compound `CCn1cc(Cn2ccnc2)c2ccccc21` [XXIX, 1-ethyl-3-(imidazol-1-ylmethyl)indole], in test [1], the pIC50 is 8.85 and the “Ratio of (3) to (1)” value is reported as > 70,000. Besides, in test [2], the pIC50 is less than 4.00.

On to `CN(C)c1ccc2[nH]cc(Cn3ccnc3)c2c1` [XXIII, 5-dimethylamino-3-(imidazol-1-ylmethyl)indole], for which, in test [1], the pIC50 is 7.19 and the “Ratio of (3) to (1)” value is listed as > 1,500. Also, the pIC50 in test [2] is less than 4.00.

For the compound `C=C(C)Cn1cc(Cn2ccnc2)c2ccccc21` [XXXV, 3-(imidazol-1-yl-methyl)-1-methallylindole], in test [1], the pIC50 is 8.48 and the “Ratio of (3) to (1)” value is on record as 300. Further, the pIC50 in test [2] was 6.00.

With `C=CCn1cc(C(C)n2ccnc2)c2ccccc21` (stereo not drawn) [XXXII, 1-allyl-3-[α-(imidazol-1-yl)ethyl]indole], the pIC50 in test [1] is 7.44.

As to `C=CCn1cc(Cn2ccnc2)c2ccccc21` [XXXI, 1-allyl-3-(imidazol-1-ylmethyl)indole], in test [1], the pIC50 is 10.24 and the “Ratio of (3) to (1)” value is > 1.7×10^6. For the same compound, in test [2], the pIC50 was less than 4.00.

`CCCn1cc(Cn2ccnc2)c2ccccc21` [XXX, 3-(imidazol-1-ylmethyl)-1-(n-propyl)indole]: the pIC50 was 8.40 in test [1] and less than 4.00 in test [2]. For the same compound, in test [1], the “Ratio of (3) to (1)” value is > 2,500.

Take `Cc1ccccc1-c1[nH]c2ccccc2c1Cn1ccnc1` [XV, 3-(imidazol-1-ylmethyl)-2-(o-tolyl)indole]: in test [1], the pIC50 was 10.85 and the “Ratio of (3) to (1)” value was 10^6. For the same compound, the pIC50 in test [2] was 4.85.

As for `Oc1ccc2[nH]cc(Cn3ccnc3)c2c1` [Example XLVII, 5-hydroxy-3-(imidazol-1-ylmethyl)-indole], in test [1], the pIC50 is 8.64 and the “Ratio of (3) to (1)” value is 3,500. The pIC50 in test [2] is 5.10.

`CC(c1cn(C)c2ccccc12)n1ccnc1` (stereo not drawn) [XXVIII, 3-[α-(imidazol-1-yl)ethyl]-1-methylindole]: the pIC50 in test [1] is 7.48.

`COc1ccc(-c2[nH]c3ccccc3c2Cn2ccnc2)cc1` [XIX, 2-(p-anisyl)-3-(imidazol-1-ylmethyl)indole]: the pIC50 in test [1] is 6.92.

For the compound `c1ccc(COc2ccc3[nH]cc(Cn4ccnc4)c3c2)cc1` [Example XXV, 5-benzyloxy-3-(imidazol-1-ylmethyl)indole], the figures for the pIC50 in test [1] and in test [2] were 6.59 and 4.43, respectively. Further, the “Ratio of (3) to (1)” value in test [1] is 140.

With `Clc1ccc(Cn2cc(Cn3ccnc3)c3ccccc32)cc1` [XXXIX, 1-(p-chlorobenzyl)-3-(imidazol-1-ylmethyl)indole], in test [1], the pIC50 was 7.07 and the “Ratio of (3) to (1)” value turned out to be 210. For the same compound, in test [2], the pIC50 was 4.74.

With `O=C(c1cccc(C(F)(F)F)c1)n1cc(Cn2ccnc2)c2ccccc21` [Example XLV, 3-(imidazol-1-ylmethyl)-1-(m-trifluoromethylbenzoyl)indole], the pIC50 in test [1] was 7.00.
